Results as given in patent EP4786452A1, “AMIDE COMPOUNDS” (China Pharmaceutical University, priority 2023, dated 2025).
Marks after values point to notes of the source that are not given here.

Key:
[1] = 5 µM
Procedure: (§1) 1 mM stock solutions of the test compounds were prepared in DMSO, and a 1 mM stock solution of the reference compound propantheline was prepared in acetonitrile.
(§2) 4 µL of test compound stock solution (or reference compound stock solution) was added to 796 µL of pre-incubated whole blood (CD-1 mouse whole blood or human whole blood) at a final concentration of 5 µM. The final concentration of the solvent was 0.5%. At different time points (including 5 min, 15 min, 30 min, 60 min, and 120 min), a 50 µL aliquot of the whole blood containing the sample was added to a new tube and incubated in a 37 °C water bath with shaking at 60 rpm. The treatment was performed in duplicate. At designated time points, 300 µL of room-temperature quenching solution (a solution of acetonitrile containing internal standards (100 nM alprazolam, 500 nM labetalol, and 2 µM ketoprofen)) was added to the whole blood sample containing the sample to terminate the reaction. 50 µL of whole blood containing the sample was added to a new tube containing 300 µL of room-temperature quenching solution to prepare a sample at 0 min. All samples were vortexed for 5 min. The samples in the plate were centrifuged at 3220 g for 30 min at 4 °C to precipitate the proteins. 100 µL of the supernatant was transferred to a new 96-well plate containing 100 µL of water for LC-MS/MS analysis.
(§3) The peak area ratio was determined by using an extracted ion chromatogram. The proportion of remaining compound at each time point was calculated according to the following formula: Remaining proportion t min (%) = peak area ratio t min / peak area ratio 0 min × 100% [formula] • Peak area ratio t min: peak area ratio of reference compound to test compound at t min; • Peak area ratio 0 min: peak area ratio of reference compound to test compound at time zero.
(§4) The slope value was determined by linear regression on the curve of the natural logarithm of the remaining proportion of the test compound versus the incubation time.
(§5) Determination of in vitro half-life (in vitro t1/2) from the slope value: in vitro t1/2 = 0.693/k [formula] in the formula, k is the rate constant (k = -slope value)

AR = AR antagonistic activity: AR / PSA ARE1 luciferase reporter gene assay in transfected LNCaP cells stimulated with 1 nM DHT; assay type: cell-based; settings: 24 h, 6.7 µM
Procedure: LNCaP cells were plated in a 6-well plate (Corning, 3516) at 8 × 10^5 cells/well.
Transfection reagents Lipo 3000 and P3000 (Lipofectamine™ 3000) and AR and PSA ARE1 reporter gene plasmids (Bio (Anhui) Co., Ltd.) (a total of 2.5 µg of plasmids, i.e., 1.25 µg of each plasmid, were added to each well) were left to stand and incubated at room temperature for 10 min, and then 250 µL of the above transfection reagents were added dropwise to each well containing cells.
The cells were washed with PBS, and the medium was replaced with a phenol red-free RPMI-1640 medium containing 5% carbon adsorption serum. The cells were re-plated onto a 96-well plate (Corning, 3603) according to the number of cells plated (2 × 10^4 cells/well).
After cell plating, the test compound (or DMSO or positive control) was added. After at least 30 min of incubation (incubator, 37 °C, 5% CO2), DHT (dihydrotestosterone) was added to the culture system at a final concentration of 1 nM. The culture system was then incubated in a carbon dioxide incubator. The final volume of the system in the plate was 100 µL.
Test compound: 10 mM stock solution, with a final concentration of 3.3 µM or 6.7 µM. Negative control: 0.1% DMSO. Positive control: 30 µM enzalutamide.
After the test compound (or DMSO or positive control) and DHT were co-incubated for 6 or 24 h, the luciferase signal was detected using the Vazyme Bright-Lite substrate. The medium was added at 70 µL/well, and the plate was shaken for 2 min, followed by reading of the luciferase signal.
Assay robustness was confirmed using the DMSO and low concentration control data: Ave_H = Ave (DMSO) [formula] Ave_L = Ave (30000nMenzalutamide) [formula] Inhibition rate (%) = (Ave_H−Sample)/(Ave_H−Ave_L) × 100% [formula] • Ave_H: the measurement of the negative control (0.1% DMSO); • Ave_L: the measurement of the positive control (30 µM enzalutamide); • Sample: the measurement of the test compound;

C57BL/6 mice = test: In vivo pharmacodynamic study: hair growth scoring in shaved telogen-phase mice; settings: for Score (mean±SD): hair growth score 0-5, 0.5 wt% applied to shaved area twice daily
Text: Vehicle: propylene glycol/ethanol (30:70, v/v)
Animal information: C57BL/6 mice (male, aged 6 weeks, about 18-20 g), purchased from Shanghai Lingchang Biotechnology Co., Ltd. The mice were bred in an SPF-level environment within independently ventilated cages. All animals had free access to a certified, commercial standard laboratory diet and drinking water.
Skin preparation: After 1-2 weeks of acclimation, the hairs in a 2 cm × 3 cm area of the back of the mice were shaved to confirm that the hairs of the mice were in the telogen phase (the skin was pink) and the skin was not damaged.
The control group received the vehicle. 12 mice were in each group.
The scoring criteria are as follows: • 0: no growth, with pink skin in the shaved area; • 1: the skin in the shaved area was gray (an increase of less than 20%); • 2: the skin in the shaved area was black (more than 20% but less than 40%); • 3: the skin in the shaved area was black with a little hair growth (more than 40% but less than 60%); • 4: the skin in the shaved area was black with partial hair growth (more than 60% but less than 80%); • 5: basically complete hair growth (80%-100% growth) in the shaved area.

[2] = 5 µM; remark: listed apart in the source
Procedure: as §1, §2, §3, §4, §5

[3] = mouse, in vivo
Text: Treatment: On day 3 after shaving, the mice were grouped for treatment. […] The control group received the vehicle. 12 mice were in each group.

[4] = human, microsomes, 1 µM, pH 7.4
Procedure: The metabolic stability of compounds disclosed herein in liver microsomes was determined using the following method.
Liver microsome source: Human liver microsome (Corning, 452117) • 2. Na2HPO4 (Tianjin Guangfu Fine Chemical Research Institute, 20180130) • 3. KH2PO4 (Tianjin Guangfu Fine Chemical Research Institute, 20180920) • 4. MgCl2 (Tianjin Guangfu Fine Chemical Research Institute, 20191216) • 5. NADPH (Solarbio, 1216C022) • 6. Positive control compound: verapamil (Sigma, MKBV4993V) • 7. AB Sciex Triple Quad 4000 liquid chromatography-mass spectrometry system
Preparation of 100 mM phosphate-buffered saline (PBS): 7.098 g Na2HPO4 was dissolved in 500 mL of purified water by sonication to give solution A. 3.400 g of KH2PO4 was dissolved in 250 mL of purified water by sonication to give solution B. Solution A was placed on a stirrer, and solution B was added slowly until the pH reached 7.4, so as to give a 100 mM PBS buffer. […] Preparation of reaction system The reaction system was prepared according to the table below.
The reaction system was pre-incubated in a 37 °C water bath for 10 min. 40 µL of 10 mM NADPH solution (in 100 mM phosphate-buffered saline) was added to the reaction system, with the final NADPH concentration being 1 mM. A negative control was prepared by replacing the NADPH solution with 40 µL of phosphate-buffered saline. The negative control was used to exclude the effect of the chemical stability of the compound itself. […] The reaction was initiated by adding 4 µL of 100 µM compound disclosed herein or positive control compound verapamil to the reaction system at a final concentration of 1 µM. […] After 0.5 min, 15 min, 30 min, 45 min, and 60 min of mixing well by using a vortex oscillator, 50 µ L of the incubated sample was taken out, and glacial acetonitrile containing an internal standard of 4 folds was added to terminate the reaction. The sample was centrifuged at 3,220 g for 45 min. 90 µL of the supernatant was transferred to a feeding plate after the centrifugation was completed, and 90 µL ultrapure water was added. The mixture was well mixed for LC-MS/MS analysis.
All data were calculated by using Microsoft Excel software. The peak areas were determined by using an extracted ion chromatogram. The in vitro half-life (T1/2) of the test compound was determined by linear fitting of the natural logarithm of the elimination proportion of the test compound over time. In vitro half-life (T1/2) was calculated by the slope k: in vitro T1/2 = 0.693/k [formula]
The in vitro intrinsic clearance (in vitro CLint, unit: µL/min/mg protein) was calculated using the following formula: in vitro CLint = k × volume of incubation solution/enzyme protein content; [formula]

Compound: CC(C)OC(=O)CCCC(C)(O)C(=O)Nc1cnc(C#N)c(C(F)(F)F)c1 (single isomer, unassigned) [Compound 010]
- Half-life T 1/2 in human whole blood [1]: 351.20 min
- AR antagonism (inhibition rate, %) (AR): 85.37^c %
- Score (mean±SD) (C57BL/6 mice; Day 0): 0
- Score (mean±SD) (C57BL/6 mice; Day 10): 0.2±0.4
- Score (mean±SD) (C57BL/6 mice; Day 13): 0.2±0.4
- Score (mean±SD) (C57BL/6 mice; Day 16): 0.3±0.5
- Score (mean±SD) (C57BL/6 mice; Day 20): 0.7±0.7
- Score (mean±SD) (C57BL/6 mice; Day 23): 0.8±0.6
- Score (mean±SD) (C57BL/6 mice; Day 27): 1.1±0.7
- Score (mean±SD) (C57BL/6 mice; Day 32, ** P < 0.01 vs. vehicle control group): 1.9±0.7**
- effect on hair growth (C57BL/6 mice; mice with telogen hair growth, 0.5 wt%, BID topically at 20 µL/cm^2, P < 0.01 from day 32): significant promoting effect on hair growth
- Half-life T 1/2 in CD-1 mouse whole blood [2]: 5.97 min
- signs of erythema, dehiscence, desquamation on the skin [3]: no signs of erythema, dehiscence, desquamation
- In vitro Clint [4]: 124.8 µL/min/mg protein
- In vitro T1/2 [4]: 11.1 min
